Assay results from patent US7160983B2, “Echinocandin derivatives, their method of preparation and their application as anti-fungal agents” (Aventis Pharma S.A., priority 1997, dated 2007).

Tested on: Glucane Synthesis of Candida Albicans
Assay: Inhibition of the glucane synthesis of Candida albicans (membrane preparation, 14C-UDP glucose incorporation)
Assay type: biochemical
Conditions: Candida albicans membranes, 25° C., 1 hour
Experimental: Pharmacological Study A—Inhibition of the Glucane Synthesis of Candida Albicans.
The membranes of Candida albicans are purified according to the process described by Tang and al Antimicrob. Agents Chemother 35, 99–103, 1991. 22.5 μg of membrane proteins are incubated in a mixture of 2 Mm of 14C-UDP glucose (specific activity=0.34 mCi./mmol, 50 μg of α-amylase, 1 Mm of dithiotreitol (DTT), 1 Mm EDTA, 100 Mm NaF, 7 μM of GTP-γ-S, 1M of sucrose and 5 oMm OF Ttris-HCL (pH 7.8) in a volume of 100 μl. The medium is incubated at 25° C. for 1 hour and the reaction terminated by addition of TCA to a final concentration of 5%. The reaction medium is transferred onto a pre-humidified glass fibre filter. The filter is washed, dried and its radioactivity is counted.
Mulundocandin is used as positive control.
The control of the medium is carried out with the same quantity of DMSO 1%.

Substance | Inhibition of the glucane synthesis of Candida albicans (activity in words)
(±) Trifluoroacetate of 1-[4-[(aminoiminomethyl)hydrazono]-N2-(12-methyl-1-oxotetradecyl)-L-ornithine]4-[4-(4-hydroxyphenyl)-L-threonine]-5-L serine echinocandin B [Example 11] | good activity
Trifluoroacetate of 1-[4-[(2-aminoethyl) amino]-N2-(12-methyl-1-oxotetradecyl)-L-ornithine]4-[4-(4-hydroxyphenyl)-L-threonine]-5-L serine echinocandin B (isomer A and isomer B) [Example 9] | good activity
Trifluoroacetate of 1-[4-[(2-aminoethyl) amino]N2-[[4′-(octyloxy)[1.1′-biphenyl]-4-[carbonyl]-L-ornithine]4-[4-(4-(4-hydroxyphenyl)-L-threonine]-5-L serine echinocandin B (isomer A) [Example 14] | good activity
